Reference: PMC7016291 (Acta Pharmaceutica Sinica. B, 2019)
Values joined by “and” are separate entries in the source; they are usually repeats but may differ in a detail not shown here. Equal entries are not always repeated. Where two headings read alike, the source gives them in different places.

Experiments:
HIV-2 (ROD) = experiment: Anti-HIV activity in MT-4 cells; type: cell-based
MT-4 cells = experiment: Cytotoxicity in uninfected MT-4 cells; type: cell-based; conditions: uninfected MT-4 cell viability reduced by 50%
WT HIV-1 RT = WT HIV-1 RT (Human immunodeficiency virus type 1 group M subtype B, UniProt P03366); experiment: HIV-1 RT inhibition assay; type: biochemical; conditions: for RT IC50: WT HIV-1 RT, mean of at least two separate experiments
HIV-1 RT RNase H = HIV-1 RT RNase H (Human immunodeficiency virus type 1 group M subtype B, UniProt P03366); experiment: HIV-1 RT RNase H inhibition; type: biochemical; conditions: for RNase H IC50: mean of four separate experiments
[1] = Plasma protein binding, dialysis equilibrium method, rat
[2] = Plasma protein binding, dialysis equilibrium method, human
[3] = Cytotoxicity in uninfected MT-4 cells; type: cell-based; conditions: human, uninfected MT-4 cells
HIV-1 L100I = experiment: Anti-HIV-1 activity against mutant strain L100I in MT-4 cells; type: cell-based
HIV-1 K103N = experiment: Anti-HIV-1 activity against mutant strain K103N in MT-4 cells; type: cell-based
HIV-1 Y181C = experiment: Anti-HIV-1 activity against mutant strain Y181C in MT-4 cells; type: cell-based
HIV-1 Y188L = experiment: Anti-HIV-1 activity against mutant strain Y188L in MT-4 cells; type: cell-based
HIV-1 E138K = experiment: Anti-HIV-1 activity against mutant strain E138K in MT-4 cells; type: cell-based
[4] = system: HIV-1 RES056 (K103N/Y181C); experiment: Anti-HIV-1 activity against double mutant RES056 in MT-4 cells; type: cell-based
HIV-1 F227L + V106A = experiment: Anti-HIV-1 activity against double mutant F227L + V106A in MT-4 cells; type: cell-based
[5] = Kinetic aqueous solubility; conditions: kinetic from dmso stock
[6] = cited from earlier work
[7] = read-out: EC50 ROD, MT-4 cells, HIV-2 strain ROD
[8] = Human immunodeficiency virus 2, MT4, read-out: EC50 ROD
[9] = Human immunodeficiency virus 1, MT4, read-out: EC50 L100I
[10] = Human immunodeficiency virus 1, MT4, read-out: EC50 K103N
[11] = Human immunodeficiency virus 1, MT4, read-out: EC50 Y181C
[12] = Human immunodeficiency virus 1, MT4, read-out: EC50 Y188L
[13] = Human immunodeficiency virus 1, MT4, read-out: EC50 E138K
[14] = Human immunodeficiency virus 1, MT4, read-out: EC50 RES056
[15] = Human immunodeficiency virus 1, MT4, read-out: EC50 F227L + V106A
[16] = aqueous solution at pH 2.0, pH 2, aqueous buffer
[17] = aqueous solution at pH 7.0, pH 7, aqueous buffer
[18] = aqueous solution at pH 7.4, pH 7.4, aqueous buffer

| SMILES | EC50 (HIV-2 (ROD); [8]) | CC50 at 4 days [3] | EC50 (HIV-1 L100I; [9]) | EC50 (HIV-1 K103N; [10]) | EC50 (HIV-1 Y181C; [11]) | EC50 (HIV-1 Y188L; [12]) | EC50 (HIV-1 E138K; [13]) | EC50 [4, 14] | EC50 (HIV-1 F227L + V106A; [15]) | IC50 (WT HIV-1 RT) | IC50 (HIV-1 RT RNase H) | solubility kinetic ([5]; FaSSIF) | solubility kinetic [5, 16] | solubility kinetic [5, 17] | solubility kinetic [5, 18] | other results |
| --- | --- | --- | --- | --- | --- | --- | --- | --- | --- | --- | --- | --- | --- | --- | --- | --- |
| COC(=O)CNc1nc(Nc2ccc(C#N)cc2)nc(Oc2c(C)cc(-c3ccc(C#N)cc3)cc2C)n1 [Compound 5a, Methyl (4-((4ʹ-cyano-3,5-dimethyl-[1,1ʹ-biphenyl]-4-yl)oxy)-6-((4-cyanophenyl)-amino)-1,3,5-triazin-2-yl) glycinate] |  |  |  |  |  |  |  |  |  |  |  |  |  |  |  | EC50 (HIV-2 (ROD); [7]): 0.56 ± 0.14 µM; CC50 (MT-4 cells): > 125 µM; RT IC50 (WT HIV-1 RT): 0.047 ± 0.003 µg/mL; RNase H IC50 (HIV-1 RT RNase H): >600 µg/mL |
| CC(=O)CC(c1ccccc1)c1c(O)c2ccccc2oc1=O (stereo not shown) [Warfarin, reference compound] |  |  |  |  |  |  |  |  |  |  |  |  |  |  |  | recovery at 2 μmol/L [1]: 99%; recovery at 2 μmol/L [2]: 86% |
| Cc1cc(-c2ccc(C#N)cc2)cc(C)c1Nc1nc(Nc2ccc(C#N)cc2)nc(N2CCN(C)CC2)n1 [Compound 6i, 4ʹ-((4-((4-Cyanophenyl)amino)-6-(4-methylpiperazin-1-yl)-1,3,5-triazin-2-yl)amino)-3ʹ,5ʹ-dimethyl-[1,1ʹ-biphenyl]-4-carbonitrile] | > 3.69 µM | 3.69 ± 2.98 µM | 0.029 µM | 0.0074 ± 0.0021 µM | 0.017 ± 0.005 µM | 0.067 ± 0.016 µM | 0.01 ± 0.002 µM | 0.35 ± 0.08 µM | ≥ 3.69 µM | 0.227 µM | > 1160 µM | 60.6 µg/mL and 117 µM | 77.3 µg/mL and 150 µM | < 0.804 µg/mL and < 1.56 µM | < 0.804 µg/mL and < 1.56 µM |  |
| COC(=O)CNc1nc(Nc2ccc(C#N)cc2)nc(Nc2c(C)cc(-c3ccc(C#N)cc3)cc2C)n1 [Compound 6b, Methyl (4-((4ʹ-cyano-3,5-dimethyl-[1,1ʹ-biphenyl]-4-yl)amino)-6-((4-cyanophenyl)amino)-1,3,5-triazin-2-yl) glycinate] |  |  |  |  |  |  |  |  |  |  |  |  |  |  |  | EC50 (HIV-2 (ROD); [7]): 21.5 µM; CC50 (MT-4 cells): > 125 µM; RT IC50 (WT HIV-1 RT): 0.033 ± 0.004 µg/mL; RNase H IC50 (HIV-1 RT RNase H): >600 µg/mL |
| Cc1cc(-c2ccc(C#N)cc2)cc(C)c1Oc1nc(Nc2ccc(C#N)cc2)nc(N2CCC(O)C2)n1 (stereo not shown) [Compound 5h, 4ʹ-((4-((4-Cyanophenyl)amino)-6-(3-hydroxypyrrolidin-1-yl)-1,3,5-triazin-2-yl)-oxy)-3ʹ,5ʹ-dimethyl-[1,1ʹ-biphenyl]-4-carbonitrile] | 2.91 ± 0.98 µM | 5.72 ± 0.08 µM | 0.0082 ± 0.0022 µM | 0.0036 ± 0.0009 µM | 0.0092 ± 0.0008 µM | 0.023 ± 0.006 µM | 0.0065 ± 0.0006 µM | 0.19 ± 0.05 µM | 0.93 ± 0.11 µM | 0.161 µM | > 828 µM | 14.7 µg/mL and 29.2 µM | 3.45 µg/mL and 6.85 µM | < 0.786 µg/mL and < 1.56 µM | < 0.786 µg/mL and < 1.56 µM | activity against RNase H (HIV-1 RT RNase H): slight activity |
| O=C1Nc2ccc(Cl)cc2[C@@](C#CC2CC2)(C(F)(F)F)O1 [EFV, reference compound] |  |  |  |  |  |  |  |  |  |  |  |  |  |  |  | CC50 (MT-4 cells): >2.0 µM; EC50 (HIV-1 L100I; read-out: EC50 L100I, MT-4 cells, single mutant): 0.014 µM; EC50 (HIV-1 K103N; read-out: EC50 K103N, MT-4 cells, single mutant): 0.03 ± 0.011 µM; EC50 (HIV-1 Y181C; read-out: EC50 Y181C, MT-4 cells, single mutant): 0.0013 ± 0.0001 µM; EC50 (HIV-1 Y188L; read-out: EC50 Y188L, MT-4 cells, single mutant): 0.082 ± 0.007 µM; EC50 (HIV-1 E138K; read-out: EC50 E138K, MT-4 cells, single mutant): 0.0015 ± 0.0001 µM; EC50 ([4]; read-out: EC50 RES056, MT-4 cells, double mutant K103N/Y181C): 0.071 ± 0.036 µM; EC50 (HIV-1 F227L + V106A; read-out: EC50 F227L + V106A, MT-4 cells, double mutant): 0.084 ± 0.02 µM |
| Cc1cc(-c2ccc(C#N)cc2)cc(C)c1Nc1nc(NCC2CCOC2)nc(Nc2ccc(C#N)cc2)n1 (stereo not shown) [Compound 6e, 4ʹ-((4-((4-Cyanophenyl)amino)-6-(((tetrahydrofuran-3-yl)methyl)amino)-1,3,5-triazin-2-yl)amino)-3ʹ,5ʹ-dimethyl-[1,1ʹ-biphenyl]-4-carbonitrile] | 7.91 ± 5.7 µM | > 125 µM | 0.022 ± 0.006 µM | 0.0034 ± 0.0005 µM | 0.011 ± 0.001 µM | 0.05 ± 0.008 µM | 0.0053 ± 0.0033 µM | 0.06 ± 0.007 µM | ≥ 16.4 µM | 0.106 µM | > 1160 µM | 60.5 µg/mL and 117 µM | 12.1 µg/mL and 23.4 µM | < 0.806 µg/mL and < 1.56 µM | < 0.806 µg/mL and < 1.56 µM |  |
| Cc1ccnc2c1NC(=O)c1cccnc1N2C1CC1 [NVP, nevirapine, reference compound] |  | > 4 µg/mL | 0.46 ± 0.11 µM | 3.19 ± 3.9 µM | > 4 µM | > 4 µM | 0.057 ± 0.006 µM | > 4 µM | > 4 µM |  |  |  |  |  |  |  |
| Cc1cc(-c2ccc(C#N)cc2)cc(C)c1Nc1nc(Nc2ccc(C#N)cc2)nc(N2CCC(O)C2)n1 (stereo not shown) [Compound 6k, 4ʹ-((4-((4-Cyanophenyl)amino)-6-(3-hydroxypyrrolidin-1-yl)-1,3,5-triazin-2-yl)-amino)-3ʹ,5ʹ-dimethyl-[1,1ʹ-biphenyl]-4-carbonitrile] | > 4.54 µM | 4.54 ± 2.56 µM | 0.0041 ± 0.0005 µM | 0.0023 ± 0.0005 µM | 0.003 ± 0.0002 µM | 0.01 ± 0.003 µM | 0.0035 ± 0.0008 µM | 0.06 µM | 1.04 µM | 0.103 µM | > 1190 µM | 53.4 µg/mL and 104 µM | 53.7 µg/mL and 104 µM | < 0.784 µg/mL and < 1.56 µM | < 0.784 µg/mL and < 1.56 µM |  |
| Cc1cc(-c2ccc(C#N)cc2)cc(C)c1Nc1nc(NCC2CCOCC2)nc(Nc2ccc(C#N)cc2)n1 [Compound 6d, 4ʹ-((4-((4-Cyanophenyl)amino)-6-(((tetrahydro-2H-pyran-4-yl)methyl)amino)-1,3,5-triazin-2-yl)amino)-3ʹ,5ʹ-dimethyl-[1,1ʹ-biphenyl]-4-carbonitrile] | 13.8 µM | > 125 µM |  |  |  |  |  |  |  | 0.241 µM | > 1130 µM |  |  |  |  |  |
| Cc1cc(-c2ccc(C#N)cc2)cc(C)c1Oc1nc(Nc2ccc(C#N)cc2)nc(NC2CCOCC2)n1 [Compound 5b, 4ʹ-((4-((4-Cyanophenyl)amino)-6-((tetrahydro-2H-pyran-4-yl)amino)-1,3,5-triazin-2-yl)oxy)-3ʹ,5ʹ-dimethyl-[1,1ʹ-biphenyl]-4-carbonitrile] | 2.03 ± 0.94 µM | > 125 µM |  |  |  |  |  |  |  | 0.263 µM | > 1160 µM |  |  |  |  |  |
| Cc1cc(C#N)cc(C)c1Oc1nc(Nc2ccc(C#N)cc2)nc(N)c1Br [ETR, etravirine, reference compound] |  | > 2 µg/mL |  |  |  |  |  |  |  |  |  | 13.2 µg/mL and 30.3 µM | 127 µg/mL and 291 µM | < 1 µg/mL and < 2.3 µM | < 1 µg/mL and < 2.3 µM | CC50 (MT-4 cells; listed as ETV): >2.0 µM; aqueous solubility [6]: lower than 1 μg/mL |
| Cc1cc(-c2ccc(C#N)cc2)cc(C)c1Oc1nc(NCC2CCOC2)nc(Nc2ccc(C#N)cc2)n1 (stereo not shown) [Compound 5c, 4ʹ-((4-((4-Cyanophenyl)amino)-6-(((tetrahydrofuran-3-yl)methyl)amino)-1,3,5-triazin-2-yl)oxy)-3ʹ,5ʹ-dimethyl-[1,1ʹ-biphenyl]-4-carbonitrile] | 1.01 ± 0.21 µM | > 125 µM |  |  |  |  |  |  |  | 0.216 µM | > 1160 µM |  |  |  |  |  |
